{"source": "paper PMC10341549", "about": "“Inhibitory Investigations of Acyl-CoA Derivatives against Human Lipoxygenase Isozymes” (International Journal of Molecular Sciences, 2023)", "key": {"h15-LOX-2": {"target": "T1, h15-LOX-2 (Homo sapiens, UniProt O15296)", "T1 construct": "His tag; made in house", "T1 sequence (O15296 1-676)": "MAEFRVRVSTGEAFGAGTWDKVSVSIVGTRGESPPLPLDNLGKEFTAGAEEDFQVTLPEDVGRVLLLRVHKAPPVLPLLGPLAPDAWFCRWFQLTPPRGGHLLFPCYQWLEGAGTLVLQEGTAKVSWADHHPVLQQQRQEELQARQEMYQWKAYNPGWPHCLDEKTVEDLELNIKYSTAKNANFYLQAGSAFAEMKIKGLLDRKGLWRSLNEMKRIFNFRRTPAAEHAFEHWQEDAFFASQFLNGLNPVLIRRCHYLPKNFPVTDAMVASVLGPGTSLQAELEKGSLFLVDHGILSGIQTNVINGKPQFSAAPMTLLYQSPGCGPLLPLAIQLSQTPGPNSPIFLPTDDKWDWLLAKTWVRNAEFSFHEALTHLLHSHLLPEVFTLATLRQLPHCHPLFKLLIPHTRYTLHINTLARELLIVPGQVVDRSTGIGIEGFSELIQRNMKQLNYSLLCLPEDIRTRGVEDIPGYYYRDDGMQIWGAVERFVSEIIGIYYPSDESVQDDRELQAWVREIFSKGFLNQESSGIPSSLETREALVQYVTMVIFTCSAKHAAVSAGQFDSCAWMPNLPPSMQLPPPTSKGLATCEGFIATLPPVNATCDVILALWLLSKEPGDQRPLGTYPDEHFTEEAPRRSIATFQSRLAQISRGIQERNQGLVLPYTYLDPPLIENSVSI", "test": "IC50 determination against h15-LOX-2", "format": "biochemical", "conditions": "10 μM AA, 25 mM HEPES pH 7.5, 0.01% Triton X-100, 22 °C", "experimental": "Overexpression and purification of his-tagged wild-type h12-LOX (Uniprot entry P18054), h15-LOX-1 (Uniprot entry P16050), and h15-LOX-2 (Uniprot entry O15296) were performed using nickel-affinity chromatography. The purity of h12-LOX, h15-LOX-1, and h15-LOX-2 was assessed using SDS gel as greater than 85%, and metal content was assessed with a Finnigan inductively coupled plasma mass spectrometer (ICP-MS, Thermo Fischer Scientific, San Jose, USA) via comparison with iron standard solution. Cobalt-EDTA was used as an internal standard. WT h5-LOX (UniProt entry P09917) was expressed in Rosetta 2 cells (Novagen) transformed with the pET14b-Stable-5-LOX plasmid (a gift from Marcia Newcomer of Louisiana State University) and grown in Terrific Broth containing 34 μg/mL chloramphenicol and 100 μg/mL ampicillin at 37 °C for 3.5 h, then placed at 20 °C for an additional 26 h. Cells were pelleted and resuspended in 50 mM Tris (pH 8.0), 500 mM NaCl, 20 mM imidazole with 1 μM pepstatin, 100 μM PMSF, and DNaseI (Sigma, Kanagawa, Japan). The cells were lysed in a French pressure cell and centrifuged at 40,000× g for 20 min at 4 °C. Saturated ammonium sulfate was added to achieve a final solution of 10% and inverted several times. The lysate was centrifuged at 40,000× g for 10 min at 4 °C. The pellet was discarded, and the supernatant was increased to a final concentration of 50% ammonium sulfate. The supernatant was rotated for 10 min at 4 °C then centrifuged at 40,000× g for 10 min at 4 °C. The pellet was split into 150 mg aliquots. The WT h5-LOX used for the kinetics in this work was not purified due to a dramatic loss in activity and was therefore prepared as an ammonium-sulfate precipitate.\nIC50 values for each acyl-CoA were measured against h5-LOX, h12-LOX, h15-LOX-1, and h15-LOX-2. The reactions were carried out in 25 mM HEPES buffer (pH 8.00), 0.01% Triton X-100, and 10 μM AA for h12-LOX; 25 mM HEPES buffer (pH 7.5), 0.01% Triton X-100, and 10 μM AA for h15-LOX-1 and h15-LOX-2; and 50 mM HEPES buffer (pH 7.5), 100 µM EDTA, 50 mM NaCl, 200 µM ATP, and 10 μM AA for h5-LOX. IC50 reactions were implemented with h15-LOX-1 (0.125 μM), h12-LOX (0.300 μM), h15-LOX-2 (0.5 μM), and h5-LOX (∼600 nM ammonium sulfate salt) at 22 °C in a 1 cm^2 quartz cuvette containing 2 mL of the according buffer and 10 μM AA for no longer than 2 min to avoid any cleavage of the acyl-coenzyme A. Inhibitor concentrations ranging from 50 μM to 0.01 μM were used. All reactions were conducted using a Cary-UV Vis spectrophotometer (Agilent, Santa Clara, CA, USA). The fastest rates over 15 s intervals were recorded. IC50 values were obtained by determining the percent of inhibition of the enzymatic rate at ten inhibitor concentrations and plotting the rate against the inhibitor concentration, followed by a hyperbolic saturation curve fit. The saturation curve fits were performed in duplicate or triplicate, depending on the quality of the data. […] Through HPLC monitoring, we were able to determine a lack of degradation of the fatty acyl-CoAs over the first hour."}, "h5-LOX": {"target": "T2, h5-LOX (Homo sapiens, UniProt P09917, C241A/C562A/D45S/DEL41-43/F15H/K654E/K655N/K656L/L77S/N44G/W14E/W76G)", "T2 sequence (P09917 with tags, fused parts or gaps W14E/F15H/DEL41-43/N44G/D45S/W76G/L77S/C241A/C562A/K654E/K655N/K656L)": "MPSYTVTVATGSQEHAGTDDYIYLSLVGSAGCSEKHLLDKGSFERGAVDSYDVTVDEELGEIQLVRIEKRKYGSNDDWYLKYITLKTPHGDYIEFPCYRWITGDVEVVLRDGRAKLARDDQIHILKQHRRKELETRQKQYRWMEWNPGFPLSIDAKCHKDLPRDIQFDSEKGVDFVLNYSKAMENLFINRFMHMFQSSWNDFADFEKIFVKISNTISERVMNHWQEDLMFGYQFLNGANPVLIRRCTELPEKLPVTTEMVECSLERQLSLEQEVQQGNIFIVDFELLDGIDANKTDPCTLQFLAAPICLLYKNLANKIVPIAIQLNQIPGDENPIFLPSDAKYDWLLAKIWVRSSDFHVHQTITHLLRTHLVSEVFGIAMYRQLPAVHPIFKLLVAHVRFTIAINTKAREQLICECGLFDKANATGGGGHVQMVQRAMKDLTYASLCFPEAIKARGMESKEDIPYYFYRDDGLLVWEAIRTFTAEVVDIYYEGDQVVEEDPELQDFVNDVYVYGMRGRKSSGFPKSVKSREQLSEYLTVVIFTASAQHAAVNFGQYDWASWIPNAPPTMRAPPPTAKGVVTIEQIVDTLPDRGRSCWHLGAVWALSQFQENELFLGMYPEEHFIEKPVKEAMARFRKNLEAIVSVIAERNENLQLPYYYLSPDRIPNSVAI", "test": "IC50 determination against h5-LOX", "format": "biochemical", "conditions": "10 μM AA, 50 mM HEPES pH 7.5, 200 µM ATP, ammonium-sulfate precipitate enzyme, 22 °C"}}}
{"smiles": "CCCCC/C=C\\C/C=C\\C/C=C\\C/C=C\\CCCC(=O)SCCNC(=O)CCNC(=O)[C@H](O)C(C)(C)COP(=O)(O)OP(=O)(O)OC[C@H]1O[C@@H](n2cnc3c(N)ncnc32)[C@H](O)[C@@H]1OP(=O)(O)O", "note": "[Arachidonoyl-CoA (20:4), arachidonoyl-coenzyme A (20:4)]", "values": [{"measurement": "IC50", "setting": "h15-LOX-2", "value": "> 500", "unit": "µM"}, {"measurement": "IC50", "setting": "h15-LOX-2; listed as arachidonoyl-CoA (20:4)", "value": "> 100", "unit": "µM"}, {"measurement": "IC50", "setting": "h5-LOX", "value": "> 200", "unit": "µM"}]}
{"smiles": "CC/C=C\\C/C=C\\C/C=C\\C/C=C\\C/C=C\\C/C=C\\CCC(=O)SCCNC(=O)CCNC(=O)C(O)C(C)(C)COP(=O)(O)OP(=O)(O)OC[C@H]1O[C@@H](n2cnc3c(N)ncnc32)[C@H](O)[C@@H]1OP(=O)(O)O", "note": "(stereo partly shown) [Docosahexaenoyl CoA (22:6), docosahexaenoyl-coenzyme A (22:6)]", "values": [{"measurement": "IC50", "setting": "h15-LOX-2", "value": "> 500", "unit": "µM"}]}
{"smiles": "CCCCC/C=C\\C/C=C\\CCCCCCCC(=O)SCCNC(=O)CCNC(=O)[C@H](O)C(C)(C)COP(=O)(O)OP(=O)(O)OC[C@H]1O[C@@H](n2cnc3c(N)ncnc32)[C@H](O)[C@@H]1OP(=O)(O)O", "note": "[Linoleoyl-CoA (18:2), linoleoyl-CoA]", "values": [{"measurement": "IC50", "setting": "h15-LOX-2", "value": "> 100", "unit": "µM"}, {"measurement": "IC50", "setting": "h5-LOX", "value": "> 100", "unit": "µM"}]}
{"smiles": "CCCCCCCC/C=C\\CCCCCCCC(=O)SCCNC(=O)CCNC(=O)[C@H](O)C(C)(C)COP(=O)(O)OP(=O)(O)OC[C@H]1O[C@@H](n2cnc3c(N)ncnc32)[C@H](O)[C@@H]1OP(=O)(O)O", "note": "[Oleoyl-CoA (18:1), oleoyl-coenzyme A (18:1)]", "values": [{"measurement": "IC50", "setting": "h15-LOX-2", "value": "0.62 ± 0.06", "unit": "µM"}, {"measurement": "IC50", "setting": "h5-LOX", "value": "> 50", "unit": "µM"}]}
{"smiles": "CCCCCC/C=C\\CCCCCCCC(=O)SCCNC(=O)CCNC(=O)[C@H](O)C(C)(C)COP(=O)(O)OP(=O)(O)OC[C@H]1O[C@@H](n2cnc3c(N)ncnc32)[C@H](O)[C@@H]1OP(=O)(O)O", "note": "[Palmitoleoyl-CoA (16:1), palmitoleoyl-coenzyme A (16:1)]", "values": [{"measurement": "IC50", "setting": "h15-LOX-2", "value": "> 200", "unit": "µM"}, {"measurement": "IC50", "setting": "h15-LOX-2; listed as palmitoleoyl-CoA (16:1)", "value": "> 100", "unit": "µM"}, {"measurement": "IC50", "setting": "h5-LOX", "value": "2 ± 0.4", "unit": "µM"}]}
{"smiles": "CCCCCCCCCCCCCCCC(=O)SCCNC(=O)CCNC(=O)[C@H](O)C(C)(C)COP(=O)(O)OP(=O)(O)OC[C@H]1O[C@@H](n2cnc3c(N)ncnc32)[C@H](O)[C@@H]1OP(=O)(O)O", "note": "[Palmitoyl-CoA (16:0), palmitoyl-coenzyme A (16:0)]", "values": [{"measurement": "IC50", "setting": "h15-LOX-2", "value": "> 200", "unit": "µM"}, {"measurement": "IC50", "setting": "h15-LOX-2; listed as palmitoyl-CoA (16:0)", "value": "> 100", "unit": "µM"}, {"measurement": "IC50", "setting": "h5-LOX", "value": "3.3 ± 0.3", "unit": "µM"}]}
{"smiles": "CCCCCCCCCCCCCCCCCC(=O)SCCNC(=O)CCNC(=O)[C@H](O)C(C)(C)COP(=O)(O)OP(=O)(O)OC[C@H]1O[C@@H](n2cnc3c(N)ncnc32)[C@H](O)[C@@H]1OP(=O)(O)O", "note": "[Stearoyl-CoA (18:0), stearoyl-coenzyme A (18:0)]", "values": [{"measurement": "IC50", "setting": "h15-LOX-2", "value": "7.6 ± 1", "unit": "µM"}, {"measurement": "IC50", "setting": "h5-LOX", "value": "> 50", "unit": "µM"}]}
{"smiles": "CCCCC/C=C\\C/C=C\\C/C=C\\CCCCC(=O)SCCNC(=O)CCNC(=O)[C@H](O)C(C)(C)COP(=O)(O)OP(=O)(O)OC[C@H]1O[C@@H](n2cnc3c(N)ncnc32)[C@H](O)[C@@H]1OP(=O)(O)O", "note": "[ɣ-Linolenoyl-CoA (18:3), ɣ-linolenoyl-coenzyme A (18:3)]", "values": [{"measurement": "IC50", "setting": "h15-LOX-2", "value": "> 500", "unit": "µM"}, {"measurement": "IC50", "setting": "h15-LOX-2; listed as ɣ-linolenoyl-CoA (18:3)", "value": "> 100", "unit": "µM"}, {"measurement": "IC50", "setting": "h5-LOX", "value": "> 500", "unit": "µM"}]}
